According to patent US20070212707A1, “CELL CYCLE MARKERS” (GE HEALTHCARE UK LIMITED, priority 2004, published 2007):
Entries after “also recorded” stand apart in the source; their conditions may differ.

Tests used:
[1] = test system: U2OS cells transiently expressing GFP-HDHB; assay: DNA damage response assay: GFP-HDHB nuclear focus formation; type: cell-based, human; conditions: 20 μM etoposide, 10 μM camptothecin or 1 μM mitomycin C, 20 h, DMSO control, Triton X-100 extraction
Method: U2OS cells (80-90% confluent) were transfected with pGFP-HDHB according to the manufacturer's protocol (Lipofectamine 2000, Invitrogen). […] After 20 h, cells were extracted with Triton X-100 buffer and then fixed for immunofluorescence as described above. Distinctive GFP-HDHB nuclear foci were counted in more than 100 cells in each independent assay.
Moreover, DNA damage induces nuclear foci that are thought to contain damage-sensing and -processing proteins (Nelms et al., Science, (1998) 280, 590-592; van den Bosch et al. EMBO Rep., (2003), 4, 844-849).

[2] = test system: CRM1-mediated nuclear export; assay: Nuclear export block: subcellular localization of GFP-HDHB and FLAG-HDHB with or without LMB; type: cell-based, human; conditions: asynchronous, G1 and S phase U2OS cells; 10 ng/ml LMB with 10 μM cycloheximide, 3 h
Method: In experiments to block nuclear protein export, cells were cultured for 3 h in DMEM containing 10 ng/ml of leptomycin B (LMB) (gift from Dr. M. Yoshida) and 10 μM cycloheximide (Calbiochem, San Diego, Calif.) to prevent new protein synthesis. Cells plated on glass coverslips were microinjected as described (Herbig et al., 1999) except that plasmid DNA rather than protein was injected.
To assess whether the putative NES in HDHB was functional, we mutated Val/Leu and Leu/Leu of the NES motif to alanine to create NES mutants 1 and 2 (FIG. 6A). GFP-HDHB and GFP-βGal-PSLD harboring these NES mutations were transiently expressed in either asynchronous or synchronized U2OS cells.

Row | SMILES | number of large GFP-HDHB nuclear foci per cell compared to the control [1] | subcellular localization of GFP-HDHB and FLAG-HDHB fusion proteins in the presence of LMB [2]
1 | CC[C@@]1(O)C(=O)OCc2c1cc1n(c2=O)Cc2cc3ccccc3nc2-1 [camptothecin] | more than doubled; also recorded: induced many more HDHB nuclear foci | –
2 | CO[C@@]12[C@H](COC(N)=O)C3=C(C(=O)C(C)=C(N)C3=O)N1C[C@@H]1N[C@@H]12 [Mitomycin C, mitomycin C] | little effect | –
3 | CCC(=C/[C@H](C)C/C=C/C(C)=C/[C@@H](C)C(=O)[C@@H](C)[C@H](O)[C@@H](C)C/C(C)=C/C(=O)O)/C=C/[C@@H]1OC(=O)C=C[C@@H]1C [LMB, leptomycin B] | – | both fusion proteins accumulated in the nucleus independently of the cell cycle
